# Measurements from patent publication US12214047B2, “FAP-activated proteasome inhibitors for treating solid tumors” (Trustees of Tufts College, priority 2011, dated 2025).
# “Also recorded” adds a separate entry of the source.
# What was measured:
# [1] = system: FAP-transfected HEK tumor xenograft; experiment: Anticancer activity in FAP-transfected HEK tumor xenograft, 40-day study; assay type: in vivo, mice
# Source text: Having determined the levels of FAP expression in the HEK xenograft model, the anticancer activity of ARI-3996 was next evaluated in a 40-day study. […] It also suffers conformation-dependent inactivation over time.
# [2] = system: solid tumors; experiment: Cytotoxicity toward solid tumors; assay type: cell-based
# [3] = system: FAP; experiment: Activation of ARI-3996 to release ARI-2727 in FAP knockout versus FAP+ mice; assay type: in vivo; details: FAP+ mice treated with ARI-3996
# Experimental: Mouse models may over-report systemic toxicity of ARI-3996 compared with that possible in cancer patients. This was further verified by treatment of FAP knockout mice with ARI-3996. In knockout mice (FIG. 21), no activation of ARI-3996 to release ARI-2727 took place, whereas in FAP+ mice a concentration of the released warhead ARI-2727 of 150 ng/mL was reached.
# [4] = system: normal cells; experiment: Cytotoxicity toward normal cells; assay type: cell-based
# [5] = Tissue distribution of Velcade, ARI-3996 and ARI-2727D in mice; assay type: in vivo
# Experimental: ARI-3996 is cleaved to ARI-2727D in and around tumors, thus facilitating the buildup of ARI-2727D in tumors.
# Velcade®'s high toxicity would also result from the accumulation of the drug in the organs at the expense of accumulation in the tumor. […] Thus ARI-2727D is being selectively delivered to solid tumors via FAP activation of ARI-3996.
# Finally, FAP activation was verified as the mode by which ARI-2727D tumor accumulation was taking place. In FIG. 24, ARI-2727D concentrations at 1 hour post-injection were compared with ARI-2727D concentrations 1 hour after injection of the prodrug form (ARI-3996).
# [6] = system: MM cell lines; experiment: Cytotoxicity toward Multiple Myeloma cell lines; assay type: cell-based; details: various MM cell lines
# [7] = biological target: T1, recombinant FAP (Homo sapiens, UniProt Q12884); experiment: In vitro cleavage of fluorogenic substrate ARI-3144 (AMC fluorescence); assay type: biochemical; details: fluorescence of released AMC
# T1 sequence (Q12884 1-760): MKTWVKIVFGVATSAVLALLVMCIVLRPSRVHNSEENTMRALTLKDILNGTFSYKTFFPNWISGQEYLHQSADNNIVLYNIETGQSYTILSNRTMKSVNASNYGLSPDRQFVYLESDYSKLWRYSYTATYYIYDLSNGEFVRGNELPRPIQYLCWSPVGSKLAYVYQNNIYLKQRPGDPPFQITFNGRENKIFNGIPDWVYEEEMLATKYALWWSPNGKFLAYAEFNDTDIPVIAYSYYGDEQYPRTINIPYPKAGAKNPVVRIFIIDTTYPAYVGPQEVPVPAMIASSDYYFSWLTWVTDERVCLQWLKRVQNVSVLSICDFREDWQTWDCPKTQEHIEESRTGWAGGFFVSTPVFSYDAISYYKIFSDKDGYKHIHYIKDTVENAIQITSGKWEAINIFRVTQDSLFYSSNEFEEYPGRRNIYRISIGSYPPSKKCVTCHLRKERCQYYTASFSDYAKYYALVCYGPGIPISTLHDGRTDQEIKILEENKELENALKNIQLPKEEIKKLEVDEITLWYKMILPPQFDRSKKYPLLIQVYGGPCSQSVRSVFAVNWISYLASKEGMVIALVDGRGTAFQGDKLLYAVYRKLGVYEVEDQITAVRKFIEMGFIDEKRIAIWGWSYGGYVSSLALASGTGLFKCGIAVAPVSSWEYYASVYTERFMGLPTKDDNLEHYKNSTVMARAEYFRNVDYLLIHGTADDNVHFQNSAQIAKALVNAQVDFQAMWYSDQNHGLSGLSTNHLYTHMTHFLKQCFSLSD
# Source text: (§1) Cleavage was monitored by measuring fluorescence of the AMC leaving group (excitation, 355 nm; emission, 460 nm).
# (§2) The D-alanine at P2 of the fluorogenic substrate, N-(Quinoline-4-carbonyl)-D-Ala-Pro-AMC [AMC=7-amino-4-methylcoumarin] (ARI-3144), confers selectivity for FAP so that it is cleaved to release fluorescent AMC by recombinant FAP but not by other DPP-IV-like proteases (FIG. 3). […] FAP is reportedly not expressed constitutively in healthy tissue with the exception of endometrium, although FAP proteolytic activity is detectable in plasma. […] The ability to measure FAP proteolytic activity in tumors is required to evaluate the usefulness of ARI-3996 as a chemotherapeutic agent. Hitherto, FAP activity has not been quantified in human or mouse tumors. […] We will use the assay to select a mouse tumor model for investigation of ARI-3996's activity in which the increase in tumor-associated FAP activity relative to plasma is equivalent to that in human epithelial cancer.
# [8] = biological target: DPP9 (Homo sapiens, UniProt Q86TI2); experiment: as above; assay type: biochemical; details: fluorescence of released AMC
# Source text: as §1, §2
# [9] = biological target: DPPIV (Homo sapiens, UniProt P27487); experiment: as above; assay type: biochemical; details: fluorescence of released AMC
# Source text: as §1, §2
# [10] = biological target: DPP8 (Homo sapiens, UniProt Q6V1X1); experiment: as above; assay type: biochemical; details: fluorescence of released AMC
# Source text: as §1, §2
# [11] = biological target: T2, PREP (Homo sapiens, UniProt P48147); experiment: as above; assay type: biochemical; details: fluorescence of released AMC
# T2 sequence (P48147 1-710): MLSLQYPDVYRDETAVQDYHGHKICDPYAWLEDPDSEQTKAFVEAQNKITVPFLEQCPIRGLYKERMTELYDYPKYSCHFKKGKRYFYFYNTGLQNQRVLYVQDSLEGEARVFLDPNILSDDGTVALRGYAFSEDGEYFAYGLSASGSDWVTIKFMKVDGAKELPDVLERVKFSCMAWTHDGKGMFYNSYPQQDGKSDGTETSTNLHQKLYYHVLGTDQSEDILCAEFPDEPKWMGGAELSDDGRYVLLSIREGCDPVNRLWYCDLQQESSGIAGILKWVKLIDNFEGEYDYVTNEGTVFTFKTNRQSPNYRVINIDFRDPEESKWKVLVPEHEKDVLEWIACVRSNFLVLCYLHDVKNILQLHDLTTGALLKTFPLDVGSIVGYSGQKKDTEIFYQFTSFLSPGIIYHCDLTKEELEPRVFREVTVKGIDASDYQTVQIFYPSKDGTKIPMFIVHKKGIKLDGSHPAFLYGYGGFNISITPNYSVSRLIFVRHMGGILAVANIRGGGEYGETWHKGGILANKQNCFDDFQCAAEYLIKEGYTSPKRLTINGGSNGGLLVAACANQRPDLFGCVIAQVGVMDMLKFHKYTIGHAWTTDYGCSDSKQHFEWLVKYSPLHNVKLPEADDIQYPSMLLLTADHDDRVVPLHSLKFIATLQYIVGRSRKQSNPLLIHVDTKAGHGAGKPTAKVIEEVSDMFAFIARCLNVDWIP
# Source text: as §1, §2
# [12] = biological target: DPPII (Homo sapiens, UniProt Q9UHL4); experiment: as above; assay type: biochemical; details: fluorescence of released AMC
# Source text: as §2
# [13] = system: U266 tumor xenografts; experiment: Anticancer effects in U266 tumor-bearing mice (ELISA and bioluminescence); assay type: in vivo; details: ARI-3996 50 mg/kg, Velcade 0.5 mg/kg, twice a week for 2 weeks
# Experimental: ARI-3996 consistently outperformed Velcade® in a mouse MM model. Mice bearing U266 tumor xenografts (2 female, 2 male) were treated with either the vehicle, ARI-3996, or Velcade® twice a week (day 1 and day 4) for 2 weeks. […] The inhibition of the tumor was evaluated using ELISA (μg/mL) and bioluminescence.
# [14] = Maximum tolerated dose in mice; assay type: in vivo
# [15] = system: HPAF-II carcinoma xenografts; details: HPAF-II xenograft; ARI-3996 100 mg/kg i.p., bortezomib 1 mg/kg
# Experimental: ARI-3996 and bortezomib were administered twice weekly (day (D)1/D4 schedule), and ARI-3996 was also given from day 1 to day 5 for 5 consecutive days (QD×5 schedule).
# One-way ANOVA with Dunnett's post test for test versus vehicle (P<0.0001).
# ARI-3996 b.i.d. s.c. and gemcitabine once per day i.p. were administered twice weekly. Mean±SEM.
# [16] = mice bearing PC3 prostate tumors; cited from earlier work
# DPP8, sequence (Q6V1X1 whole entry, species assumed): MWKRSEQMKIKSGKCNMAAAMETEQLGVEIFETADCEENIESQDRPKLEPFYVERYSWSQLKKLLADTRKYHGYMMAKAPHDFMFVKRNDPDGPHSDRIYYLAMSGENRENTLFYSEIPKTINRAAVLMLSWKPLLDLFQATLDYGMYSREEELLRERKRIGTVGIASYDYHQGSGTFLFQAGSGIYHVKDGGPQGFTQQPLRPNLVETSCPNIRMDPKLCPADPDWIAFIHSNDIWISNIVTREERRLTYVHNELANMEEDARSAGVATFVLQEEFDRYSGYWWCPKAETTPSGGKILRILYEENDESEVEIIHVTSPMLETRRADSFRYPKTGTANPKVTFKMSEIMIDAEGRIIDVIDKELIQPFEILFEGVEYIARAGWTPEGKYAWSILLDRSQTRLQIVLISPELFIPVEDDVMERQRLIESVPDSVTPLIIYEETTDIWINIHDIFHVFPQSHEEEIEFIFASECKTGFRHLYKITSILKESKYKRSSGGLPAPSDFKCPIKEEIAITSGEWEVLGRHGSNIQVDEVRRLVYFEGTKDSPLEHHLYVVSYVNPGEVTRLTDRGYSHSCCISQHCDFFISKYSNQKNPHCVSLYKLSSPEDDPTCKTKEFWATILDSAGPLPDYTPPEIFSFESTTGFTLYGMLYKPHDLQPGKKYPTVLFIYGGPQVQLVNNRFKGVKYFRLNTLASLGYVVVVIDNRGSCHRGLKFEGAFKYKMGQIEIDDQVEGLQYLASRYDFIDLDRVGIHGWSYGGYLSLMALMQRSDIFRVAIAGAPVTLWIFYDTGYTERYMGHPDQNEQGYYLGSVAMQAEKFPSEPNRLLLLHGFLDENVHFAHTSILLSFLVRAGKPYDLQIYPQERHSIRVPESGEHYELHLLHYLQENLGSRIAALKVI
# DPPIV, sequence (P27487 whole entry, species assumed): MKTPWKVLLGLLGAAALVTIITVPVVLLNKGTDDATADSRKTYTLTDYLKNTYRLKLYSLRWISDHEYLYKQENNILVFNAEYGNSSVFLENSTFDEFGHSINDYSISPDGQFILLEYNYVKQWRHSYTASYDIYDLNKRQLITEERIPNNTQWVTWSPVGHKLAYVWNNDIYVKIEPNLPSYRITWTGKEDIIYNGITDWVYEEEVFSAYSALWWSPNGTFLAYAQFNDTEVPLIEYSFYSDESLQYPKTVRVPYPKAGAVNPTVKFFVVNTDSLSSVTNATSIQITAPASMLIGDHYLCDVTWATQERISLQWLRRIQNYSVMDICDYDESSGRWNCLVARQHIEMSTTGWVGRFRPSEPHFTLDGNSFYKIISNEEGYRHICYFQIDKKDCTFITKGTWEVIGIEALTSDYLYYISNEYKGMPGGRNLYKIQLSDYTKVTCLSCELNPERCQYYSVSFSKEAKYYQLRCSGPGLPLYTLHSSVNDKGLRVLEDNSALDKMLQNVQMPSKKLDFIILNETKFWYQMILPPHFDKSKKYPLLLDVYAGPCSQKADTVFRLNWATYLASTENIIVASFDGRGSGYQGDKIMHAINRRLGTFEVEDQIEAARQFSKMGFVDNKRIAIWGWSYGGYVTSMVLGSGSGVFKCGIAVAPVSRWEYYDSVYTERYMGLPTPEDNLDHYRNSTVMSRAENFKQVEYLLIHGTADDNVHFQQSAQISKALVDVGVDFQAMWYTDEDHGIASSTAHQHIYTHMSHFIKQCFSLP
# DPP9, sequence (Q86TI2 whole entry, species assumed): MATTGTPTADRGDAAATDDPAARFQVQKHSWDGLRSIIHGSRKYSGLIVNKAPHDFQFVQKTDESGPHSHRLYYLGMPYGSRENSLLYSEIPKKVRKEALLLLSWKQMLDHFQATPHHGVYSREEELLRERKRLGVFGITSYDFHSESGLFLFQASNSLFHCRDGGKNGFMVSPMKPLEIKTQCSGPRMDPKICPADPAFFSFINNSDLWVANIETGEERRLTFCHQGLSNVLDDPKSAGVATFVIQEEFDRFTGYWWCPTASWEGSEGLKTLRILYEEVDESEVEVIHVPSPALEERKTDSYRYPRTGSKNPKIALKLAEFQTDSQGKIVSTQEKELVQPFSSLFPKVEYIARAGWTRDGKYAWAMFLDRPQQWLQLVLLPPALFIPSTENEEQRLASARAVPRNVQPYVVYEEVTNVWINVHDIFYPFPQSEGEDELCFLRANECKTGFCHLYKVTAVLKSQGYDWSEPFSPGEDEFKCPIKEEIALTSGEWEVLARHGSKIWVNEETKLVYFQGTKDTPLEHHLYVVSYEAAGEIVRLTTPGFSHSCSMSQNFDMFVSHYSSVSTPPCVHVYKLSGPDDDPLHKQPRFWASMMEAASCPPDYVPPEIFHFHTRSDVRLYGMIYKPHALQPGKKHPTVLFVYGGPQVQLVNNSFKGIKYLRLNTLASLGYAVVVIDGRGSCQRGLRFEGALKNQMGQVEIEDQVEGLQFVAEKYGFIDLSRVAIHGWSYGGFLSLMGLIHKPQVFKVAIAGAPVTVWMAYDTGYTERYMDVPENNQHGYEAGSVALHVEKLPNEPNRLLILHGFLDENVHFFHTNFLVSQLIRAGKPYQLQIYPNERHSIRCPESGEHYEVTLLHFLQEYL
structure (smiles),measurement,setting,value
"CC(C)CC(NC(=O)C(N)Cc1cccc2ccccc12)B(O)O (centres unmarked) [ARI-2727D, Ala(1-Nal)-boroLeu]",Tumor growth inhibition,[1],potent tumor inhibition
same,Cytotoxicity,[2],much lower
same,Concentration of the released warhead ARI-2727,[3],150 ng/mL
same,Cytotoxicity,[4],slightly lower toxicity
same,Tissue distribution of ARI-2727D after injection of prodrug,[5]; 1 hour after injection of ARI-3996,highest concentration of ARI-2727D was found in the tumor
same,Tissue distribution of ARI-2727D after direct injection,[5]; 1 hour post-injection of ARI-2727D,highest concentration of the drug accumulating in the kidneys and lung
same,Tissue distribution of ARI-2727D formed from ARI-3996,[5]; mice given ARI-3996,much higher relative concentrations in the tumor
same,Cytotoxicity,[6],extremely high potency
"Cc1cc(=O)oc2cc(NC(=O)[C@@H]3CCCN3C(=O)[C@@H](C)NC(=O)c3ccnc4ccccc34)ccc12 [ARI-3144, N-(Quinoline-4-carbonyl)-D-Ala-Pro-AMC]",Cleavage by FAP,[7],excellent substrate for FAP
same,Cleavage by DPP9,[8],no cleavage
same,Cleavage by DPPIV,[9],no cleavage
same,Cleavage by DPP8,[10],no cleavage
same,Cleavage by PREP,[11],no cleavage
same,Cleavage by DPPII,[12],no cleavage
"CC(C)C[C@H](NC(=O)[C@H](Cc1ccccc1)NC(=O)c1cnccn1)B(O)O [bortezomib, reference compound]",Tumor growth inhibition,[1],hardly slowed the growth of the tumors
same,Cytotoxicity,[2],much lower
same,Deaths / survival,[13],1
same,MTD (maximum tolerated dose),[14],1 mg/kg
same,Cytotoxicity,[4],slightly lower toxicity
same,Antitumor effect at MTD,[15],refractory; also recorded: lacks significant antitumor activity
same,Tissue distribution of the administered drug,"[5]; mouse, in vivo","much higher concentrations in the heart, lung, kidney, liver, spleen, and lung than in the tumor"
same,Cytotoxicity,[6],extremely high potency
CC(C)C[C@H](NC(=O)[C@H](Cc1ccccc1)NC(=O)c1cnccn1)B(O)O [^14C-bortezomib],Healthy organ exposure relative to tumor exposure,[16],≤ 9 fold
